Measurements: patent US9804168B2, “Biomarker discovery in complex biological fluid using bead or particle based libraries and diagnostic kits and therapeutics” (OPKO Pharmaceuticals, LLC, priority 2011, dated 2017)

Tested on: anti-DNP antibody
Experiment: FACS bead model: DNP beads versus acetyl beads with anti-DNP antibody in sera
Assay type: binding
Settings: FIG. 40; 1,000 ug/mL sera concentration
Experimental: The Mean fluorescence intensity (MFI) separation was greatest at the higher dilution of 1,000 ug/mL sera.

O=[N+]([O-])c1ccc(NCCO)c([N+](=O)[O-])c1 [ethanolamine-DNP]
competition with binding of DNP (on a plate) to anti-DNP antibody: direct competition
